{"source": "patent US6576256B2", "about": "“Treatment of patients at elevated cardiovascular risk with a combination of a cholesterol-lowering agent, an inhibitor of the renin-angiotensin system, and aspirin” (priority 2001, dated 2003)", "origin": "cited, not measured here", "key": {"[1]": {"tested_on": "patients at risk for cardiovascular events", "settings": "daily administration of low doses (approximately 80 mg)"}, "blood pressure": {"tested_on": "blood pressure", "settings": "relative to angiotensin II"}}}
{"compound": "CC(=O)Oc1ccccc1C(=O)O", "note": "[aspirin, acetylsalicylic acid]", "values": [{"measurement": "reduction of second heart attacks, strokes, and cardiovascular deaths", "setting": "[1]", "value": "at least 25%"}]}
{"compound": "angiotensin I (DRVYIHPFHL; Angiotensin-1; UniProt P01019 25-34, looked up) [decapeptide formed by renin acting on angiotensinogen]", "values": [{"measurement": "hypertensive activity as share of that of angiotensin II", "setting": "blood pressure", "value": "about 1%"}]}
